Measurements published in US7906620B2, “Tumor associated antigen, peptides thereof, and use of same as anti-tumor vaccines” (Yeda Research and Development Co. Ltd., priority 2002, dated 2011).

How the values were obtained:
[1] = tested on: HLA-A2-peptide specific CD8+ cells; test: MHC-peptide tetramer monitoring of HLA-A2-peptide specific CD8+ cells; type: cell-based, human; conditions: stimulated PBMC, MHC-peptide tetramers
LNCaP = test: Lysis of LNCaP tumor cells by human anti-peptide CTL; type: cell-based; conditions: LNCaP high and low HLA expressors as targets
Source text: FIGS. 18A-18E are graphs showing that human anti-peptide CTL from a healthy donor kills LNCaP tumor cells. PBMC from a healthy donor (FIGS. 18A-18C) or a CaP patient (FIGS. 18D-18E) were stimulated with PAP-3 (FIGS. 18A, 18D), STEAP-3 (FIGS. 18B, 18E) or PSGR-1 (FIG. 18C) as described. LNCaP/CRL1740 (LNCaP high in HLA-A2.1 expression), LNCaP/CRL10995 (LNCaP low in HLA-A2.1 expression) and PC3 (negative for HLA-A2.1) served as targets in CTL assays.
(§1) When human PBMC are stimulated in vitro by PAP-3 and STEAP-3 peptides, the resulting CTL can lyse target cells (T2, EL4/HHD) pulsed with PAP-3, STEAP-3 or PSGR-1 and PSGR-6 peptides. (FIGS. 15 and 16). Here, these findings were expanded and peripheral blood of three healthy and two CaP individuals was tested for the existence of CTL precursors against PAP-3, STEAP-3 and PSGR-1 peptides. Leukopheresis products of the donors were obtained from Barzilai Medical Center (Ashkelon, Israel) according to Declaration of Helsinki Principles. PBMC were isolated by centrifugation on Ficoll-Plaque Plus gradients (Amersham, Sweden). In vitro priming of CTL was done over autologous DC that were prepared from monocytes by IL-4 and GM-CSF treatment and matured with a IL-1β, IL-6, TNF-α and PGE2 cocktail. DC were pulsed with synthetic peptides and PBMC were supplemented with IL-7. Two days later, IL-2 was added and renewed every three days. Two additional re-stimulations were done every 7 days over peptide pulsed monocytes. Seven days after the third stimulation, lymphocytes were harvested and a cytolytic assay was performed using relevant/non-relevant peptide pulsed or non-pulsed T2 cells (FIGS. 17A-17C) and LNCaP (high and low HLA expressors) cells as targets (FIGS. 18A-18E). […] Monitoring of HLA-A2-peptide specific CD8+ cells for PAP-3 and STEAP-3 was also performed by MHC-peptide tetramers (tetramers of recombinant HLA-A2.1-beta2 microglobulin single chain with peptides were prepared in collaboration with Dr Yoram Reiter, Technion, Haifa). […]

T2 cells = test: In vitro priming of human CTL with prostate peptides, cytolytic assay on peptide pulsed T2 cells; type: cell-based; conditions: for existence of peripheral CTL precursors in healthy individuals: peripheral blood of healthy individuals; for activation of CTL precursors in PBMC derived from CaP patients and healthy donors: three healthy and two CaP individuals
Description: FIGS. 16A-16D are graphs showing in vitro priming of human CTLs. PBMC of leukopheresis samples were isolated and in vitro CTL primed with peptide pulsed autologous DC. PBMC were supplemented with IL-7 and two days later IL-2 was added and renewed every three days. Additional two cycles of re-stimulation were done every 7 days over peptide pulsed monocytes. Seven days after the last stimulation cytolytic assay was performed using peptide pulsed or non-pulsed T2 cells as target. In FIG. 16A, PBMC derived from CaP individual (donor A) were primed and re-stimulated with STEAP-3 pulsed DC/monocytes. Target cells: relevant (STEAP-3) and non-relevant peptide (HIV-derived, PAP-3) pulsed T2 cells. In FIG. 16B, PBMC derived from healthy individual (donor B) were primed and restimulated with PAP-3 pulsed DC/monocytes. Target cells: relevant (PAP-3) and non-relevant peptide (HIV-derived, STEAP-3) pulsed T2 cells. PBMC derived from healthy individual (donor C) were primed and restimulated with either PAP-3 (C-1; FIG. 16C) or STEAP-3 (C-2; FIG. 16D) pulsed DC/monocytes. Relevant (PAP-3 or STEAP-3) peptide pulsed and non-pulsed T2 cells were used as targets.
FIGS. 17A-17C are graphs showing peptide specific CTL induced in human PBMC by PAP-3 (FIG. 17A), STEAP-3 (FIG. 17B), and PSGR-1 (FIG. 17C). PBMC from a healthy donor were stimulated by peptide pulsed DC as described and CTL activity was tested on homologous peptide pulsed T2 target cells (HLA-A2 lymphoma, TAP deficient).
Finally, peripheral blood of two healthy (donors B, C) and one CaP (donor A) individuals were tested for the existence of CTL precursors (FIGS. 16A-16D). Leukopheresis products of the donors were obtained from Barzilai Medical Center (Ashkelon, Israel) according to Declaration of Helsinki Principles. PBMC were isolated by centrifugation on Ficoll-Plaque Plus gradients (Amersham, Sweden). In vitro priming of CTL was done over autologous DC that were prepared from monocytes by IL-4 and GM-CSF treatment and maturated with a IL-1β, IL-6, TNF-α and PGE2 cocktail. DC were pulsed with synthetic peptides and PBMC were supplemented with IL-7. Two days later, IL-2 was added and renewed every three days. Two additional re-stimulations were done every 7 days over peptide pulsed monocytes. Seven days after the third stimulation, lymphocytes were harvested and a cytolytic assay was performed using relevant/non-relevant peptide pulsed or non-pulsed at all T2 cells.
as §1

| Sequence | Levels of HLA-A2-peptide specific CD8+ cells [1] [%] | lysis of tumor cells expressing endogenously processed proteins (LNCaP) | activation of CTL precursors in PBMC derived from CaP individual (T2 cells; donor A) | existence of peripheral CTL precursors in healthy individuals (T2 cells) | activation of CTL precursors in PBMC derived from CaP patients and healthy donors (T2 cells) |
| --- | --- | --- | --- | --- | --- |
| LLLGTIHAL (listed as Homo sapiens) [STEAP-3, STEAP start position 262] | 0.76 | lyse tumor cells | activated peripheral CTL precursors | 1 out of 2 | activated CTL precursors |
| ILLWQPIPV (listed as Homo sapiens) [PAP-3, PAP start position 135] | 1.7 | lyse tumor cells |  | 2 out of 2 | activated CTL precursors |
